According to PMC7463632, “Conformational Restriction of Histamine with a Rigid Bicyclo[3.1.0]hexane Scaffold Provided Selective H3 Receptor Ligands” (Molecules, 2020):
Several values for one entry are separate records, joined by “and”; a condition that tells them apart may be missing. Identical values can stand only once. Like-named read-outs stand apart in the source and are kept apart here.

How the values were obtained:
[1] = biological target: T1, human histamine H4 receptor (Homo sapiens, UniProt Q9H3N8); assay: Radioligand binding assay with [3H]histamine on CHO cell membranes expressing recombinant human H4 receptor; settings: human H4R, mean ± SEM (n = 3–5)
T1 construct: purchased Euroscreen (Brussels, Belgium); host or cells: CHO cells (membrane preparations)
Method: (§1) The binding affinities of 6, 7, ent-6, and ent-7 for the human H3R subtype with [^3H]N^α-methylhistamine and the human H4R subtype with [^3H]histamine were evaluated using cell membranes expressing human H3R or H4R according to the previously reported method, and the results are summarized in Table 1.
(§2) The protocol of the biological assay was according to the previous report. The membrane preparations of Chinese hamster ovary (CHO) cells, which expressed recombinant human histamine H3 or H4 receptors, were purchased from Euroscreen (Brussels, Belgium). The binding assay of the H3 and H4 receptors was performed using [^3H]N^α-methylhistamine (Perkin-Elmer, Boston, MA) and [^3H]histamine (Perkin-Elmer), respectively. Briefly, the membrane preparations (7.5–15 µg protein) were incubated with different concentrations of [^3H]N^α-methylhistamine (0.1–3 nM) and of [^3H]histamine(1–30 nM) for 30 min at 25 °C in 50 mM Tris/5 mM MgCl2 buffer (pH 7.4). The reaction was terminated by rapid filtration (Cell Harvester, Brandel Co., Gaithersburg, MD) through Whatman GF/B glass fiber filters presoaked for 2 h in 0.5% polyethyleneimine, and the filters were rinsed three times with an ice-cold buffer (2 mL). Membrane-bound radioactivity was extracted from filters overnight in scintillation fluid (toluene, 2 L; Triton X-100, 1 L; 2,5-diphenyloxazole, 15 g; 1,4-bis[2-(5-phenyloxazolyl)]benzene, 0.3 g) and determined in a liquid scintillation counter. […] The apparent dissociation constants (Kd) for each radioligand was determined by nonlinear regression analysis of the curve generated by plotting specific binding concentration versus concentration of the radioligand with GraphPad Prism (GraphPad Software, San Diego, CA) using a one-site binding curve equation. […] The inhibition constant, Ki, was calculated from the equation, Ki = IC50/(1 + L/Kd), where L equals the concentration of each radioligand. The data were presented as mean ± SE (n = 3–5).

[2] = biological target: T2, human histamine H3 receptor (Homo sapiens, UniProt Q9Y5N1); assay: Radioligand binding assay with [3H]Nα-methylhistamine on CHO cell membranes expressing recombinant human H3 receptor; settings: for Selectivity Ratio (H4/H3): ratio of Ki H4 / Ki H3, human receptors; for Ki: human H3R, CHO cell membranes, [3H]Nα-methylhistamine, mean ± SEM (n = 3–5)
T2 construct: purchased Euroscreen (Brussels, Belgium); host or cells: CHO cells (membrane preparations)
Method: as §1, §2

[3] = biological target: T2, human histamine H3 receptor; settings: cited from earlier work; for Ki: human H3R, [3H]Nα-methylhistamine, mean ± SEM; for Selectivity Ratio (H4/H3): ratio of Ki H4 / Ki H3, human receptors
[4] = biological target: T1, human histamine H4 receptor; set-up: method as in PMID 16942032; settings: human H4R, [3H]histamine; mean ± SEM; cited from earlier work

T1 sequence (Q9H3N8 whole entry): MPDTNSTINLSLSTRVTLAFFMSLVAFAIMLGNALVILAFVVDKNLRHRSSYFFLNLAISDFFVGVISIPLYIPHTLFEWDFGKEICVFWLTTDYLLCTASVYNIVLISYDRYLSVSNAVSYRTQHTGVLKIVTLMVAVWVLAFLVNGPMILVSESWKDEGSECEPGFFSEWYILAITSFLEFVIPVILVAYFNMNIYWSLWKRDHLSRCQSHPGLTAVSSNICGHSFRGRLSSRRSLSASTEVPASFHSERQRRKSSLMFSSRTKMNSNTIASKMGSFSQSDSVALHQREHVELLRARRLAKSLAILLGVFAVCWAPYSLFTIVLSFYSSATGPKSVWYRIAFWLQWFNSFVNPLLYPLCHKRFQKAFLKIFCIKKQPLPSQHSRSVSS
T2 sequence (Q9Y5N1 whole entry): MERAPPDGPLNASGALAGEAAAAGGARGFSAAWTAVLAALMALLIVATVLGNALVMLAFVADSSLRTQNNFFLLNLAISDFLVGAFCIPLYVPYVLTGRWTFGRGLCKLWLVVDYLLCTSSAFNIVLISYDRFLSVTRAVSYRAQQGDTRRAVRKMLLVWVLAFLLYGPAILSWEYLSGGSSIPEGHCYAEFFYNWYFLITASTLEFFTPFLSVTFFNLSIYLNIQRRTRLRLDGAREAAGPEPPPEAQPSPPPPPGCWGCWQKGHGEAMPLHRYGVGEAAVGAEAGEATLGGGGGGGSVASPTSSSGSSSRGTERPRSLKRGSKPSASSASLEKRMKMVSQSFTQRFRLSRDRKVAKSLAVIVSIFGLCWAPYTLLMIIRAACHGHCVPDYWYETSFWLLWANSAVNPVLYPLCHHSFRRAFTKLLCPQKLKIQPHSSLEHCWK

| Structure (SMILES) | Ki [1] [nM] | fold lower H3R binding affinity than that of 3 ([2]; H3R Ki of 5 compared with 3) | Selectivity Ratio (H4/H3) [2] | Ki [2] [nM] | Ki [3] [nM] | Selectivity Ratio (H4/H3) [3] | Ki [4] [nM] |
| --- | --- | --- | --- | --- | --- | --- | --- |
| CC[C@H](CNCc1ccc(Cl)cc1)[C@H]1C[C@@H]1c1c[nH]cn1 [Compound 5] | 76.5 ± 14 | more than 15 fold | 1.2 | – | – | – | – |
| Clc1ccc(CNC[C@H]2CC[C@@]3(c4c[nH]cn4)C[C@@H]23)cc1 (single isomer, unassigned) [ent-7] | 69.2 ± 21 | – | 4.7 | 14.8 ± 3.8 | – | – | – |
| Clc1ccc(CNC[C@@H]2CC[C@]3(c4c[nH]cn4)C[C@H]23)cc1 [Compound 7] | 602 ± 343 | – | – | 5.6 ± 1.6 | – | – | – |
| Clc1ccc(CNC[C@@H]2CC[C@@]3(c4c[nH]cn4)C[C@@H]23)cc1 (single isomer, unassigned) [ent-6] | 416 ± 155 | – | 19 | 21.9 ± 6 | – | – | – |
| Cl.Cl.Clc1ccc(CNC[C@H]2CC[C@]3(c4c[nH]cn4)C[C@H]23)cc1 [Compound 6, (1S,4S,5R)-4-[N-(4-Chlorobenzyl)aminomethyl]-1-(1H-imidazol-4-yl)bicyclo[3.1.0]hexane dihydrochloride] | 501 ± 201 | – | 16 | 31.6 ± 8.2 | – | – | – |
| CC[C@@H](CNCc1ccc(Cl)cc1)[C@H]1C[C@@H]1c1c[nH]cn1 [Compound 4] | 9 ± 1 | – | 1.3 | – | – | – | – |
| Clc1ccc(CNCCC2CC2c2c[nH]cn2)cc1 (stereo not shown) [Compound 3] | – | – | – | – | 3.6 ± 0.4 | 10.3 and 10 | 37.2 ± 2.7 |
| Clc1ccc(CNCC[C@@H]2C[C@@H]2c2cnc[nH]2)cc1 (single isomer, unassigned) [ent-3] | – | – | – | – | 8.4 ± 1.5 | 0.9 | 7.6 ± 0.4 |
